pIC50: −log10 of the molar value.
Tests used:
[1] = tested on: OVCAR-10, human ovarian cancer resistant to cisplatin treatment; experiment: CyQUANT cell proliferation assay, OVCAR-10; type: cell-based; details: OVCAR-10, 72-hour treatment
Text: (§1) In these experiments, desired number of cells were exposed to phosphaplatins of different concentrations for 72 hr. before measuring the DNA content. Because the DNA content is proportional to the number of surviving cells, the assay provides a quantitative measure of proliferating cells. The technique is described in detail in Jones et al., “Sensitive determination of cell number using the CyQUANT cell proliferation assay,” J. Immunol. Methods, vol. 254, pp. 85-98 (2001).
(§2) In TABLES 1-5, except where actual error values are given, each reported value is assumed to have an error not greater than ±15% of the reported value; and unless otherwise specified, the data were obtained from clonogenic assays.

[2] = tested on: A549, human lung adenocarcinoma cancer cells; experiment: CyQUANT cell proliferation assay, A549; type: cell-based; details: A549, 72-hour treatment
Text: as §1, §2

[3] = tested on: OVCAR-10, human ovarian cancer resistant to cisplatin treatment; experiment: Clonogenic assay, OVCAR-10 cells; type: cell-based; details: OVCAR-10, 24 hours treatment
Experimental: (§3) To determine the relative activities of the phosphaplatins of formulas (I)-(VI), each stereoisomer was tested through in vitro clonogenic assays using human ovarian cancer cells, human colon cancer cells, and human head-and-neck cancer cells. […] Cells were cultured on monolayer using RPMI 1640 supplemented with 10% fetal bovine serum, 2 mM glutamine, 0.25 units/mL insulin and penicillin/streptomycin (100 units/mL) in a 37° C. incubator continuously gassed with 5% CO2. Cells were subcultured using 0.0625% trypsin in HBSS to maintain cells in exponential cell growth.
(§4) Half-maximal inhibitory concentration (IC50) values were determined using a clonogenic assay or a CyQUANT® cell proliferation assay. In the clonogenic assay, for example, 500-700 A2780 cells from a single cell suspension were plated onto 60 mm petri plates 24 hours before treatment with the platinum compounds to permit cell attachment. On the day of treatment with the platinum compounds described in the above Synthesis Examples, the medium was decanted and was replaced with the appropriate concentration of phosphaplatin compounds (from 50 nM to 75 μM) at three different time points, and the treated cells were placed back into the 37° C. incubator for 24 hours. Triplicate plates were set up for each platinum compound concentration. After the 24-hour treatment, the medium containing the platinum compounds was decanted and was replaced with fresh medium. These plates were returned to the 37° C. incubator for 7 days for colony formation.
as §2
(§5) In further tests, cells were treated with the platinum compounds continuously for 7 days. Colonies were fixed and stained using 2% crystal violet in 4% formaldehyde. Colonies containing more than 50 cells were scored. The number of scored colonies from the triplicate plates was averaged, and this number was divided by the number of cells plated to obtain a value for the fraction of cells forming colonies. These values for fraction of cells forming colonies then were corrected for plating efficiency by dividing the fraction by the number of cells forming colonies in plates that were not treated with platinum compounds. […] Similar data for OVCAR-10 are shown in FIG. 3, comparing (1R,2R)-pyrodach-2 (RD2), (1R,2R)-pyrodach-4 (RD4), trans-(±)-pyrodach-2 (T-D2), and trans-(±)-pyrodach-4 (T-D4).

[4] = tested on: PC-3, human metastatic prostate cancer cells; experiment: CyQUANT cell proliferation assay, PC-3; type: cell-based; details: PC-3, 72-hour treatment
Text: as §1, §2

[5] = tested on: MCF-7, human breast cancer cells; experiment: CyQUANT cell proliferation assay, MCF-7; type: cell-based; details: MCF-7, 72-hour treatment
Text: as §1, §2

[6] = tested on: human colon cancer cell lines (HT-29); experiment: CyQUANT cell proliferation assay, HT-29; type: cell-based; details: HT-29, 72 hours
Text: as §1, §2

[7] = tested on: SKMEL-2, human skin melanoma cancer cells; experiment: CyQUANT cell proliferation assay, SKMEL-2; type: cell-based; details: SKMEL-2, 72-hour treatment
Text: as §1, §2

[8] = tested on: U251, human glioblastoma cancer cells; experiment: CyQUANT cell proliferation assay, U251; type: cell-based; details: U251, 72-hour treatment
Text: as §1, §2

[9] = tested on: A2780, epithelial human ovarian cancer; experiment: Clonogenic assay, A2780 cells; type: cell-based
Experimental: as §3
as §4, with “and the treated cells were placed back into the 37° C. incubator for 24 hours.” left out, “After the 24-hour treatment, the medium containing the platinum compounds was decanted and was replaced with fresh medium.” left out
as §2, §5

[10] = tested on: OVCAR-8, human ovarian cancer cells with dysfunctional p53; experiment: CyQUANT cell proliferation assay, OVCAR-8; type: cell-based; details: OVCAR-8, 72-hour treatment
Text: as §1, §2

[11] = tested on: A2780/C30, epithelial human ovarian cancer resistant to 30 μM cisplatin and 100 μM carboplatin; experiment: Clonogenic assay, A2780/C30 cells; type: cell-based; details: A2780/C30, 1 hour treatment
Experimental: as §3
as §4, with “and the treated cells were placed back into the 37° C. incubator for 24 hours.” left out
as §2, §5

[12] = tested on: Ovarian tumor; experiment: Ovarian tumor inflicted SCID mice, tumor growth and log cell kill; type: in vivo; details: 7 mg/kg
Experimental: Ovarian tumor inflicted SCID mice were treated with trans-(±)-pyrodach-2 and trans-(±)-pyrodach-4 at various doses up to 40 mg/kg, and tumor growth was monitored up to six weeks or until the tumor size became so large that these animals were sacrificed. The tumor growth or regression by the phosphaplatin-treated mice was then compared with cisplatin-treated mice (7 mg/kg) and carboplatin-treated mice (60 mg/kg). Three doses of platinum compounds were administered on alternate days when the tumor grew to a size of at least 100 mm^3 size. Gross and net log cell kill values were then calculated using the formulas:
[formula] [formula] where T and C are median times in days to grow tumor to a specified size, and Td is the median time in days to double the size of the tumor in control animals.

N.N.[Cl][Pt][Cl] [cisplatin]
pIC50 [1]: 5.51
pIC50 [2]: 5.55
pIC50 [3]: 5.39
pIC50 [4]: 5.97
pIC50 [5]: 5.29
pIC50 [6]: 5.19
pIC50 [7]: 5.27
pIC50 [8]: 6.12
pIC50 ([9]; A2780, 1 hour treatment): 5.15
pIC50 ([9]; A2780, 24 hours treatment): 5.30
pIC50 [10]: 5.20
pIC50 [11]: 4.00
time to death of treated mice [12]: ≤ 7 days
tumor response [12]: tumor regression
